Test results from ChEMBL document CHEMBL4257449, “New N-(2-phenyl-4-oxo-1,3-thiazolidin-3-yl)-1,2-benzothiazole-3-carboxamides and acetamides as antimicrobial agents” (2017).
Values after ≈ are worked out from the molar mass of the structure shown.

The compounds below were run on Talaromyces funiculosus (assay: Fungicidal activity against Penicillium funiculosum ATCC 36839 incubated for 72 hrs followed by serial sub-cultivation for 72 hrs and measured after 72 hrs by serial dilution method). Settings: not given.
Type: functional

SMILES	MFC99.5
O=C(Cc1nsc2ccccc12)NN1C(=O)CSC1c1ccccc1Cl (centres undefined)	19.8 ×10⁻² umol/ml
O=C(NN1C(=O)CSC1c1c(F)cccc1F)c1nsc2ccccc12 (centres undefined)	20.4 ×10⁻² umol/ml

What follows are compounds tested on Trichoderma viride (assay: Fungicidal activity against Trichoderma viride IAM 5061 incubated for 72 hrs followed by serial sub-cultivation for 72 hrs and measured after 72 hrs by serial dilution method). Settings: not given.
Type: functional

SMILES	MFC99.5
O=C(Cc1nsc2ccccc12)NN1C(=O)CSC1c1ccccc1Cl (centres undefined)	10 ×10⁻² umol/ml
O=C(NN1C(=O)CSC1c1c(F)cccc1F)c1nsc2ccccc12 (centres undefined)	10.2 ×10⁻² umol/ml

The compounds below were run on Staphylococcus aureus (assay: Antibacterial activity against Staphylococcus aureus ATCC 6538 after 24 hrs by microdilution method). Settings: ATCC 6538, 24 h.
Type: functional

MIC	SMILES
198 µM (≈ 80 µg/mL)	O=C(Cc1nsc2ccccc12)NN1C(=O)CSC1c1ccccc1Cl (centres undefined)
102 µM (≈ 39.9 µg/mL)	O=C(NN1C(=O)CSC1c1c(F)cccc1F)c1nsc2ccccc12 (centres undefined)

These compounds were tested on Salmonella typhimurium (assay: Antibacterial activity against Salmonella typhimurium ATCC 13311 after 24 hrs by microdilution method). Settings: Salmonella enterica, ATCC 13311, 24 h.
Type: functional, Salmonella enterica subsp. enterica serovar Typhimurium

MIC	SMILES
198 µM (≈ 80 µg/mL)	O=C(Cc1nsc2ccccc12)NN1C(=O)CSC1c1ccccc1Cl (centres undefined)
204 µM (≈ 79.9 µg/mL)	O=C(NN1C(=O)CSC1c1c(F)cccc1F)c1nsc2ccccc12 (centres undefined)

These compounds were tested on Micrococcus flavus (assay: Antibacterial activity against Micrococcus flavus ATCC 10240 after 24 hrs by microdilution method). Settings: ATCC 10240, 24 h.
Type: functional

MIC	SMILES
273 µM (≈ 110 µg/mL)	O=C(Cc1nsc2ccccc12)NN1C(=O)CSC1c1ccccc1Cl (centres undefined)
102 µM (≈ 39.9 µg/mL)	O=C(NN1C(=O)CSC1c1c(F)cccc1F)c1nsc2ccccc12 (centres undefined)

What follows are compounds tested on Enterobacter cloacae (assay: Bactericidal activity against Enterobacter cloacae incubated for 24 hrs followed by serial sub-cultivation and measured after 24 hrs by microdilution method). Settings: not given.
Type: functional

SMILES	MBC99.5
O=C(Cc1nsc2ccccc12)NN1C(=O)CSC1c1ccccc1Cl (centres undefined)	37.2 ×10⁻² umol/ml
O=C(NN1C(=O)CSC1c1c(F)cccc1F)c1nsc2ccccc12 (centres undefined)	20.4 ×10⁻² umol/ml

The compounds below were run on Aspergillus versicolor (assay: Antifungal activity against Aspergillus versicolor ATCC 11730 after 72 hrs by serial dilution method). Settings: ATCC 11730, 72 h.
Type: functional

MIC	SMILES
74 µM (≈ 29.9 µg/mL)	O=C(Cc1nsc2ccccc12)NN1C(=O)CSC1c1ccccc1Cl (centres undefined)
204 µM (≈ 79.9 µg/mL)	O=C(NN1C(=O)CSC1c1c(F)cccc1F)c1nsc2ccccc12 (centres undefined)

What follows are compounds tested on Pseudomonas aeruginosa (assay: Antibacterial activity against Pseudomonas aeruginosa ATCC 27853 after 24 hrs by microdilution method). Settings: ATCC 27853, 24 h.
Type: functional

MIC	SMILES
372 µM (≈ 150 µg/mL)	O=C(Cc1nsc2ccccc12)NN1C(=O)CSC1c1ccccc1Cl (centres undefined)
204 µM (≈ 79.9 µg/mL)	O=C(NN1C(=O)CSC1c1c(F)cccc1F)c1nsc2ccccc12 (centres undefined)

What follows are compounds tested on Aspergillus ochraceus (assay: Fungicidal activity against Aspergillus ochraceus ATCC 12066 incubated for 72 hrs followed by serial sub-cultivation for 72 hrs and measured after 72 hrs by serial dilution method). Settings: not given.
Type: functional

SMILES	MFC99.5
O=C(Cc1nsc2ccccc12)NN1C(=O)CSC1c1ccccc1Cl (centres undefined)	19.8 ×10⁻² umol/ml
O=C(NN1C(=O)CSC1c1c(F)cccc1F)c1nsc2ccccc12 (centres undefined)	10.2 ×10⁻² umol/ml

The compounds below were run on Staphylococcus aureus (assay: Bactericidal activity against Staphylococcus aureus ATCC 6538 incubated for 24 hrs followed by serial sub-cultivation and measured after 24 hrs by microdilution method). Settings: not given.
Type: functional

SMILES	MBC99.5
O=C(Cc1nsc2ccccc12)NN1C(=O)CSC1c1ccccc1Cl (centres undefined)	37.2 ×10⁻² umol/ml
O=C(NN1C(=O)CSC1c1c(F)cccc1F)c1nsc2ccccc12 (centres undefined)	20.4 ×10⁻² umol/ml

The compounds below were run on Aspergillus fumigatus (assay: Antifungal activity against Aspergillus fumigatus after 72 hrs by serial dilution method). Settings: not given.
Type: functional

MIC	SMILES
372 µM (≈ 150 µg/mL)	O=C(Cc1nsc2ccccc12)NN1C(=O)CSC1c1ccccc1Cl (centres undefined)
408 µM (≈ 160 µg/mL)	O=C(NN1C(=O)CSC1c1c(F)cccc1F)c1nsc2ccccc12 (centres undefined)

Each compound was assayed on Escherichia coli (assay: Antibacterial activity against Escherichia coli ATCC 35210 after 24 hrs by microdilution method). Settings: ATCC 35210, 24 h.
Type: functional

MIC	SMILES
198 µM (≈ 80 µg/mL)	O=C(Cc1nsc2ccccc12)NN1C(=O)CSC1c1ccccc1Cl (centres undefined)
102 µM (≈ 39.9 µg/mL)	O=C(NN1C(=O)CSC1c1c(F)cccc1F)c1nsc2ccccc12 (centres undefined)

Each compound was assayed on Listeria monocytogenes (assay: Bactericidal activity against Listeria monocytogenes NCTC 7973 incubated for 24 hrs followed by serial sub-cultivation and measured after 24 hrs by microdilution method). Settings: not given.
Type: functional

SMILES	MBC99.5
O=C(Cc1nsc2ccccc12)NN1C(=O)CSC1c1ccccc1Cl (centres undefined)	74.4 ×10⁻² umol/ml
O=C(NN1C(=O)CSC1c1c(F)cccc1F)c1nsc2ccccc12 (centres undefined)	40.8 ×10⁻² umol/ml

The compounds below were run on Penicillium ochrochloron (assay: Antifungal activity against Penicillium ochrochloron ATCC 9112 after 72 hrs by serial dilution method). Settings: ATCC 9112, 72 h.
Type: functional

MIC	SMILES
144 µM (≈ 58.2 µg/mL)	O=C(Cc1nsc2ccccc12)NN1C(=O)CSC1c1ccccc1Cl (centres undefined)
102 µM (≈ 39.9 µg/mL)	O=C(NN1C(=O)CSC1c1c(F)cccc1F)c1nsc2ccccc12 (centres undefined)

Each compound was assayed on Candida albicans (assay: Fungicidal activity against Candida albicans incubated for 72 hrs followed by serial sub-cultivation for 72 hrs and measured after 72 hrs by serial dilution method). Settings: not given.
Type: functional

SMILES	MFC99.5
O=C(Cc1nsc2ccccc12)NN1C(=O)CSC1c1ccccc1Cl (centres undefined)	37.2 ×10⁻² umol/ml
O=C(NN1C(=O)CSC1c1c(F)cccc1F)c1nsc2ccccc12 (centres undefined)	51 ×10⁻² umol/ml

Each compound was assayed on Aspergillus ochraceus (assay: Antifungal activity against Aspergillus ochraceus ATCC 12066 after 72 hrs by serial dilution method). Settings: ATCC 12066, 72 h.
Type: functional

MIC	SMILES
100 µM (≈ 40.4 µg/mL)	O=C(Cc1nsc2ccccc12)NN1C(=O)CSC1c1ccccc1Cl (centres undefined)
51 µM (≈ 20 µg/mL)	O=C(NN1C(=O)CSC1c1c(F)cccc1F)c1nsc2ccccc12 (centres undefined)

Each compound was assayed on Talaromyces funiculosus (assay: Antifungal activity against Penicillium funiculosum ATCC 36839 after 72 hrs by serial dilution method). Settings: ATCC 36839, 72 h.
Type: functional

MIC	SMILES
100 µM (≈ 40.4 µg/mL)	O=C(Cc1nsc2ccccc12)NN1C(=O)CSC1c1ccccc1Cl (centres undefined)
102 µM (≈ 39.9 µg/mL)	O=C(NN1C(=O)CSC1c1c(F)cccc1F)c1nsc2ccccc12 (centres undefined)

What follows are compounds tested on Bacillus cereus (assay: Bactericidal activity against Bacillus cereus incubated for 24 hrs followed by serial sub-cultivation and measured after 24 hrs by microdilution method). Settings: not given.
Type: functional

SMILES	MBC99.5
O=C(Cc1nsc2ccccc12)NN1C(=O)CSC1c1ccccc1Cl (centres undefined)	37.2 ×10⁻² umol/ml
O=C(NN1C(=O)CSC1c1c(F)cccc1F)c1nsc2ccccc12 (centres undefined)	20.4 ×10⁻² umol/ml

These compounds were tested on Salmonella typhimurium (assay: Bactericidal activity against Salmonella typhimurium ATCC 13311 incubated for 24 hrs followed by serial sub-cultivation and measured after 24 hrs by microdilution method). Settings: not given.
Type: functional, Salmonella enterica subsp. enterica serovar Typhimurium

SMILES	MBC99.5
O=C(Cc1nsc2ccccc12)NN1C(=O)CSC1c1ccccc1Cl (centres undefined)	37.2 ×10⁻² umol/ml
O=C(NN1C(=O)CSC1c1c(F)cccc1F)c1nsc2ccccc12 (centres undefined)	40.8 ×10⁻² umol/ml

These compounds were tested on Listeria monocytogenes (assay: Antibacterial activity against Listeria monocytogenes NCTC 7973 after 24 hrs by microdilution method). Settings: NCTC 7973, 24 h.
Type: functional

MIC	SMILES
372 µM (≈ 150 µg/mL)	O=C(Cc1nsc2ccccc12)NN1C(=O)CSC1c1ccccc1Cl (centres undefined)
204 µM (≈ 79.9 µg/mL)	O=C(NN1C(=O)CSC1c1c(F)cccc1F)c1nsc2ccccc12 (centres undefined)

These compounds were tested on Trichoderma viride (assay: Antifungal activity against Trichoderma viride IAM 5061 after 72 hrs by serial dilution method). Settings: IAM 5061, 72 h.
Type: functional

MIC	SMILES
74 µM (≈ 29.9 µg/mL)	O=C(Cc1nsc2ccccc12)NN1C(=O)CSC1c1ccccc1Cl (centres undefined)
51 µM (≈ 20 µg/mL)	O=C(NN1C(=O)CSC1c1c(F)cccc1F)c1nsc2ccccc12 (centres undefined)

The compounds below were run on Candida albicans (assay: Antifungal activity against Candida albicans after 72 hrs by serial dilution method). Settings: not given.
Type: functional

MIC	SMILES
198 µM (≈ 80 µg/mL)	O=C(Cc1nsc2ccccc12)NN1C(=O)CSC1c1ccccc1Cl (centres undefined)
408 µM (≈ 160 µg/mL)	O=C(NN1C(=O)CSC1c1c(F)cccc1F)c1nsc2ccccc12 (centres undefined)

The compounds below were run on Escherichia coli (assay: Bactericidal activity against Escherichia coli ATCC 35210 incubated for 24 hrs followed by serial sub-cultivation and measured after 24 hrs by microdilution method). Settings: not given.
Type: functional

SMILES	MBC99.5
O=C(Cc1nsc2ccccc12)NN1C(=O)CSC1c1ccccc1Cl (centres undefined)	37.2 ×10⁻² umol/ml
O=C(NN1C(=O)CSC1c1c(F)cccc1F)c1nsc2ccccc12 (centres undefined)	20.4 ×10⁻² umol/ml

Each compound was assayed on Bacillus cereus (assay: Antibacterial activity against Bacillus cereus after 24 hrs by microdilution method). Settings: not given.
Type: functional

MIC	SMILES
198 µM (≈ 80 µg/mL)	O=C(Cc1nsc2ccccc12)NN1C(=O)CSC1c1ccccc1Cl (centres undefined)
102 µM (≈ 39.9 µg/mL)	O=C(NN1C(=O)CSC1c1c(F)cccc1F)c1nsc2ccccc12 (centres undefined)

What follows are compounds tested on Penicillium ochrochloron (assay: Fungicidal activity against Penicillium ochrochloron ATCC 9112 incubated for 72 hrs followed by serial sub-cultivation for 72 hrs and measured after 72 hrs by serial dilution method). Settings: not given.
Type: functional

SMILES	MFC99.5
O=C(Cc1nsc2ccccc12)NN1C(=O)CSC1c1ccccc1Cl (centres undefined)	19.8 ×10⁻² umol/ml
O=C(NN1C(=O)CSC1c1c(F)cccc1F)c1nsc2ccccc12 (centres undefined)	51 ×10⁻² umol/ml

The compounds below were run on Enterobacter cloacae (assay: Antibacterial activity against Enterobacter cloacae after 24 hrs by microdilution method). Settings: not given.
Type: functional

MIC	SMILES
273 µM (≈ 110 µg/mL)	O=C(Cc1nsc2ccccc12)NN1C(=O)CSC1c1ccccc1Cl (centres undefined)
102 µM (≈ 39.9 µg/mL)	O=C(NN1C(=O)CSC1c1c(F)cccc1F)c1nsc2ccccc12 (centres undefined)

Each compound was assayed on Pseudomonas aeruginosa (assay: Bactericidal activity against Pseudomonas aeruginosa ATCC 27853 incubated for 24 hrs followed by serial sub-cultivation and measured after 24 hrs by microdilution method). Settings: not given.
Type: functional

SMILES	MBC99.5
O=C(Cc1nsc2ccccc12)NN1C(=O)CSC1c1ccccc1Cl (centres undefined)	74.4 ×10⁻² umol/ml
O=C(NN1C(=O)CSC1c1c(F)cccc1F)c1nsc2ccccc12 (centres undefined)	40.8 ×10⁻² umol/ml

These compounds were tested on Aspergillus fumigatus (assay: Fungicidal activity against Aspergillus fumigatus incubated for 72 hrs followed by serial sub-cultivation for 72 hrs and measured after 72 hrs by serial dilution method). Settings: not given.
Type: functional

SMILES	MFC99.5
O=C(Cc1nsc2ccccc12)NN1C(=O)CSC1c1ccccc1Cl (centres undefined)	74.4 ×10⁻² umol/ml
O=C(NN1C(=O)CSC1c1c(F)cccc1F)c1nsc2ccccc12 (centres undefined)	51 ×10⁻² umol/ml

The compounds below were run on Micrococcus flavus (assay: Bactericidal activity against Micrococcus flavus ATCC 10240 incubated for 24 hrs followed by serial sub-cultivation and measured after 24 hrs by microdilution method). Settings: not given.
Type: functional

SMILES	MBC99.5
O=C(Cc1nsc2ccccc12)NN1C(=O)CSC1c1ccccc1Cl (centres undefined)	37.2 ×10⁻² umol/ml
O=C(NN1C(=O)CSC1c1c(F)cccc1F)c1nsc2ccccc12 (centres undefined)	20.4 ×10⁻² umol/ml

These compounds were tested on Aspergillus versicolor (assay: Fungicidal activity against Aspergillus versicolor ATCC 11730 incubated for 72 hrs followed by serial sub-cultivation for 72 hrs and measured after 72 hrs by serial dilution method). Settings: not given.
Type: functional

SMILES	MFC99.5
O=C(Cc1nsc2ccccc12)NN1C(=O)CSC1c1ccccc1Cl (centres undefined)	10 ×10⁻² umol/ml
O=C(NN1C(=O)CSC1c1c(F)cccc1F)c1nsc2ccccc12 (centres undefined)	40.8 ×10⁻² umol/ml

Each compound was assayed on Aspergillus niger (assay: Antifungal activity against Aspergillus niger ATCC 6275 after 72 hrs by serial dilution method). Settings: ATCC 6275, 72 h.
Type: functional

MIC	SMILES
144 µM (≈ 58.2 µg/mL)	O=C(Cc1nsc2ccccc12)NN1C(=O)CSC1c1ccccc1Cl (centres undefined)
204 µM (≈ 79.9 µg/mL)	O=C(NN1C(=O)CSC1c1c(F)cccc1F)c1nsc2ccccc12 (centres undefined)

Each compound was assayed on Aspergillus niger (assay: Fungicidal activity against Aspergillus niger ATCC 6275 incubated for 72 hrs followed by serial sub-cultivation for 72 hrs and measured after 72 hrs by serial dilution method). Settings: not given.
Type: functional

SMILES	MFC99.5
O=C(Cc1nsc2ccccc12)NN1C(=O)CSC1c1ccccc1Cl (centres undefined)	19.8 ×10⁻² umol/ml
O=C(NN1C(=O)CSC1c1c(F)cccc1F)c1nsc2ccccc12 (centres undefined)	40.8 ×10⁻² umol/ml
